# Biological target: T1, Purine nucleoside phosphorylase (Homo sapiens, UniProt P00491)
# T1 sequence (P00491 whole entry): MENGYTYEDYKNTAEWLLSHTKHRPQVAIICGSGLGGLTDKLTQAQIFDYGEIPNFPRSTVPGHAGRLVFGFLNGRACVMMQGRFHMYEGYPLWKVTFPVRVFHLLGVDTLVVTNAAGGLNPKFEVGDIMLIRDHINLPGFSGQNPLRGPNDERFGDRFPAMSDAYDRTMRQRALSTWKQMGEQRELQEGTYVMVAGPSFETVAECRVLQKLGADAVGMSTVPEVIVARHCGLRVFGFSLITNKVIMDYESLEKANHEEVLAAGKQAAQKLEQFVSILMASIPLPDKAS
# Assay: In vitro inhibition of purine nucleoside phosphorylase isolated from human erythrocytes.
row,Compound,Ki [nM]
1,Nc1nc(O)c2nn(COCCCCCP(=O)(O)O)nc2n1,550
2,Nc1nc(O)c2ncn(CCCCCCCP(=O)(O)O)c2n1,530
3,Nc1nc2c(cnn2COCCCCCCP(=O)(O)O)c(=O)[nH]1,630
4,Nc1nc2c(nnn2COCCCCP(=O)(O)O)c(=O)[nH]1,48
5,Nc1nc2c(cnn2COCCCCCP(=O)(O)O)c(=O)[nH]1,230
6,Nc1nc2c(ncn2CCCCCCCCCCP(=O)(O)O)c(=O)[nH]1,1600
7,Nc1nc2c(ncn2COCCCCCCP(=O)(O)O)c(=O)[nH]1,220
8,Nc1nc(O)c2ncn(COCCCCP(=O)(O)O)c2n1,56
9,Nc1nc2c(cnn2CCCCCCC(F)(F)P(=O)(O)O)c(=O)[nH]1,49
10,Nc1nc(O)c2nnn(CCCCCP(=O)(O)O)c2n1,65

# Continued by falling Ki, values first:
row,Ki [nM],Compound
1,7300,Nc1nc(O)c2nnn(CCCCP(=O)(O)O)c2n1
2,1100,Nc1nc2c(cnn2CCCCCCCCP(=O)(O)O)c(=O)[nH]1
3,580,Nc1nc2c(cnn2CCCCCCCP(=O)(O)O)c(=O)[nH]1
4,390,Nc1nc(O)c2ncn(CCCCCCCCP(=O)(O)O)c2n1
5,360,Nc1nc(O)c2nnn(CCCCCCP(=O)(O)O)c2n1
6,190,Nc1nc(O)c2nnn(COCCCCCCP(=O)(O)O)c2n1
7,160,Nc1nc2c(ncn2COCCCCCP(=O)(O)O)c(=O)[nH]1
8,96,Nc1nc2c(nnn2COCCCCCP(=O)(O)O)c(=O)[nH]1
9,57,Nc1nc2c(ncn2CCCCCCC(F)(F)P(=O)(O)O)c(=O)[nH]1
10,51,Nc1nc2c(ncn2COCCCCOP(=O)(O)O)c(=O)[nH]1
